Target: T1, human farnesyl transferase (Homo sapiens, UniProt P49354+P49356)
T1 construct: human farnesyl transferase purified from THP1 cell cultures; endogenous in cells; host or cells: THP1 cell cultures (enzyme purified from the cells)
Assay: inhibition of farnesyl transferase ((3H) farnesyl transfer from (3H) FPP to p21 H-ras)
Format: biochemical
Conditions: human farnesyl transferase purified from THP1 cell cultures; p21 H-ras substrate; 20 minutes at 37° C.; 9 concentrations; read-out: in vitro inhibitory activity IC50
How it was run: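 Radiometric transfer of [3H]farnesyl from 4.5 pmol [3H]FPP to 200 pmol p21 H-ras by ~5 ng human enzyme purified from THP1 cells, in 50 mM Tris-HCl, 5 mM MgCl2, 5 mM DTT, 0.2% octyl glucoside, 20 min at 37 °C. Protein precipitated with SDS/TCA in methanol, filter-bound counts measured; IC50 from 9 concentrations, triplicate.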

| IC50 | SMILES |
| --- | --- |
| 5.15 µM | C=C(C(=O)N1C[C@H]2[C@@]3(c4ccccc4)CC[C@H](c4ccccc43)[C@@]2(C(=O)N[C@H](C)c2cccc3ccccc23)C1)c1ccccc1OC [Example 83, (3aS,4R,9R,9aS)-N-[(R)-1-(1-naphthyl)ethyl]-4,9-ethano-2-[(2-methoxyphenyl)prop-2-en-1-oyl]-9-phenyl-2,3,3a,4,9,9a-hexahydro-1H-benzo[f]isoindole-3a-carboxamide] |
| 0.33 µM | C=C(C(=O)N1C[C@H]2[C@@]3(c4ccccc4)CC[C@H](c4ccccc43)[C@@]2(C(=O)NC2CCc3ccccc32)C1)c1ccccc1OC (stereo partly drawn) [Example 84, (3aS,4R,9R,9aS)-N-[(R,S)-1-indanyl]-4,9-ethano-2-[(2-methoxyphenyl)prop-2-en-1-oyl]-9-phenyl-2,3,3a,4,9,9a-hexahydro-1H-benzo[f]isoindole-3a-carboxamide] |
| 0.26 µM | C=C(C(=O)N1C[C@H]2[C@@]3(c4ccccc4)CC[C@H](c4ccccc43)[C@@]2(C(=O)N[C@H](CO)c2ccccc2)C1)c1ccccc1OC [Example 85, (3aS,4R,9R,9aS)-N-[1-(S)-1-phenyl-2-hydroxyethyl]-4,9-ethano-2[-(2-methoxyphenyl)prop-2-en-1-oyl]-9-phenyl-2,3,3a,4,9,9a-hexahydro-1H-benzo[f]isoindole-3a-carboxamide] |
| 4.85 µM | C=C(C(=O)N1C[C@H]2[C@@]3(c4ccccc4)CC[C@H](c4ccccc43)[C@@]2(C(=O)NC(C)(C)c2ccccc2)C1)c1ccccc1OC [Example 86, (3aS,4R,9R,9aS)-N-(2,2-dimethylbenzyl)-4,9-ethano-2[-(2-methoxyphenyl)prop-2-en-1-oyl]-9-phenyl-2,3,3a,4,9,9a-hexahydro-1H-benzo[f]isoindole-3a-carboxamide] |
| 0.25 µM | C=C(C(=O)N1C[C@H]2[C@@]3(c4ccccc4)CC[C@H](c4ccccc43)[C@@]2(C(=O)NC(C#N)c2ccccc2)C1)c1ccccc1OC (stereo partly drawn) [Example 87, (3aS,4R,9R,9aS)-N-[1-(R,S)-1-cyano-1-phenylmethyl]-4,9-ethano-2-[(2-methoxyphenyl)prop-2-en-1-oyl]-9-phenyl-2,3,3a,4,9,9a-hexahydro-1H-benzo[f]isoindole-3a-carboxamide] |
| 2.5 µM | C=C(C(=O)N1C[C@H]2[C@@]3(c4ccccc4)CC[C@H](c4ccccc43)[C@@]2(C(=O)NC2CCSc3ccccc32)C1)c1ccccc1OC (stereo partly drawn) [Example 88, (3aS,4R,9R,9aS)-N-[(R,S)-4-benzo[b]thiopyranyl]-4,9-ethano-2-[(2-methoxyphenyl)prop-2-en-1-oyl]-9-phenyl-2,3,3a,4,9,9a-hexahydro-1H-benzo[f]isoindole-3a-carboxamide] |
| 0.78 µM | C=C(C(=O)N1C[C@H]2[C@@]3(c4ccccc4)CC[C@H](c4ccccc43)[C@@]2(C(=O)NCc2cccc(C(F)(F)F)c2)C1)c1ccccc1OC [Example 89, (3aS,4R,9R,9aS)-N-[3-trifluorobenzyl]-4,9-ethano-2-[(2-methoxyphenyl)prop-2-en-1-oyl]-9-phenyl-2,3,3a,4,9,9a-hexahydro-1H-benzo[f]isoindole-3a-carboxamide] |
| 0.97 µM | C=C(C(=O)N1C[C@H]2[C@@]3(c4ccccc4)CC[C@H](c4ccccc43)[C@@]2(C(=O)NCc2ccc(OC)c(OC)c2)C1)c1ccccc1OC [Example 90, (3aS,4R,9R,9aS)-N-(3,4-dimethoxybenzyl)-4,9-ethano-2-[(2-methoxyphenyl)prop-2-en-1-oyl]-9-phenyl-2,3,3a,4,9,9a-hexahydro-1H-benzo[f]isoindole-3a-carboxamide] |
| 0.16 µM | C=C(C(=O)N1C[C@H]2[C@@]3(c4ccccc4)CC[C@H](c4ccccc43)[C@@]2(C(=O)NCc2cccnc2)C1)c1ccccc1OC [Example 91, (3aS,4R,9R,9aS)-N-[(3-pyridyl)methyl]-4,9-ethano-2-[(2-methoxyphenyl)prop-2-en-1-oyl]-9-phenyl-2,3,3a,4,9,9a-hexahydro-1H-benzo[f]isoindole-3a-carboxamide] |
| 4.8 µM | C=C(C(=O)N1C[C@H]2[C@@]3(c4ccccc4)CC[C@H](c4ccccc43)[C@@]2(C(=O)NCc2ccc(C(F)(F)F)cc2)C1)c1ccccc1OC [Example 92, (3aS,4R,9R,9aS)-N-[4-trifluorobenzyl]-[4,9-ethano-2-(2-methoxyphenyl)prop-2-en-1-oyl]-9-phenyl-2,3,3a,4,9,9a-hexahydro-1H-benzo[f]isoindole-3a-carboxamide] |
| 0.45 µM | C=C(C(=O)N1C[C@H]2[C@@]3(c4ccccc4)CC[C@H](c4ccccc43)[C@@]2(C(=O)NCc2ccccn2)C1)c1ccccc1OC [Example 93, (3aS,4R,9R,9aS)-N-[(2-pyridyl)-methyl]-4,9-ethano-2-[(2-methoxyphenyl)prop-2-en-1-oyl]-9-phenyl-2,3,3a,4,9,9a-hexahydro-1H-benzo[f]isoindole-3a-carboxamide] |
| 0.43 µM | C=C(C(=O)N1C[C@H]2[C@@]3(c4ccccc4)CC[C@H](c4ccccc43)[C@@]2(C(=O)NCc2ccco2)C1)c1ccccc1OC [Example 94, (3aS,4R,9R,9aS)-N-[(2-furyl)-methyl]-4,9-ethano-2-[(2-methoxyphenyl)prop-2-en-1-oyl]-9-phenyl-2,3,3a,4,9,9a-hexahydro-1H-benzo[f]isoindole-3a-carboxamide] |
| 0.27 µM | C=C(C(=O)N1C[C@H]2[C@@]3(c4ccccc4)CC[C@H](c4ccccc43)[C@@]2(C(=O)NCc2cccs2)C1)c1ccccc1OC [Example 95, (3aS,4R,9R,9aS)-N-[(2-thienyl)-methyl]-4,9-ethano-2-[(2-methoxyphenyl)prop-2-en-1-oyl]-9-phenyl-2,3,3a,4,9,9a-hexahydro-1H-benzo[f]isoindole-3a-carboxamide] |
| 0.36 µM | C=C(C(=O)N1C[C@H]2[C@@]3(c4ccccc4)CC[C@H](c4ccccc43)[C@@]2(C(=O)NCc2cscn2)C1)c1ccccc1OC [Example 96, (3aS,4R,9R,9aS)-N-[(4-thiazolyl)-methyl]-4,9-ethano-2-[(2-methoxyphenyl)prop-2-en-1-oyl]-9-phenyl-2,3,3a,4,9,9a-hexahydro-1H-benzo[f]isoindole-3a-carboxamide] |
